Measurements reported in PubChem BioAssay AID2060910 (Molecular Pharmacology Branch, DTP, NCI, 2025).

System: 242566-281-R-J2-PDC complex spheroid viability
Test: Anticancer human tumor 242566-281-R-J2-PDC patient-derived pancreatic carcinoma cell line growth inhibition [RAS]
Details: for IC50: curve of first compound; for viability, T/C: stronger effect = lower value
Procedure, shortened: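 Multi-cell-type spheroids: tumor cells plus HUVEC endothelial cells and mesenchymal stem cells. RAS-pathway inhibitors were combined with targeted agents, each dosed in half-log steps down from clinical Cmax, or from 10 microM when Cmax was unknown.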
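Note: spheroids exposed to compound for 7 days before readout.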
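Throughout, for viability, T/C: 100% = DMSO vehicle control wells.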

CC(C)n1nc(-c2ccc3oc(N)nc3c2)c2c(N)ncnc21 + CCn1c(-c2cc(N3CCN(C)CC3)cnc2C(C)OC)c2c3cc(ccc31)-c1csc(n1)CC(NC(=O)C1CC1C)C(=O)N1CCCC(N1)C(=O)OCC(C)(C)C2
IC50 (second compound 0.000949 µM): 29.9 nM | IC50 (second compound 0.003 µM): 7.15 nM | IC50 (second compound 0.00949 µM): < 0.316 nM | IC50 (second compound 0.03 µM): < 0.316 nM | IC50 (second compound 0.0949 µM): < 0.316 nM | IC50 (second compound 0.3 µM): < 0.316 nM | viability, T/C (second compound 0.000949 µM, first compound 0.000316 µM): 81.6% | viability, T/C (second compound 0.000949 µM, first compound 0.001 µM): 91.5% | viability, T/C (second compound 0.000949 µM, first compound 0.00316 µM): 61.7% | viability, T/C (second compound 0.000949 µM, first compound 0.01 µM): 71.3% | viability, T/C (second compound 0.000949 µM, first compound 0.0316 µM): 48% | viability, T/C (second compound 0.000949 µM, first compound 0.1 µM): 27.4% | viability, T/C (second compound 0.003 µM, first compound 0.000316 µM): 75.8% | viability, T/C (second compound 0.003 µM, first compound 0.001 µM): 62.1% | viability, T/C (second compound 0.003 µM, first compound 0.00316 µM): 54.2% | viability, T/C (second compound 0.003 µM, first compound 0.01 µM): 48.7% | viability, T/C (second compound 0.003 µM, first compound 0.0316 µM): 40.9% | viability, T/C (second compound 0.003 µM, first compound 0.1 µM): 20.6% | viability, T/C (second compound 0.00949 µM, first compound 0.000316 µM): 48.5% | viability, T/C (second compound 0.00949 µM, first compound 0.001 µM): 38.4% | viability, T/C (second compound 0.00949 µM, first compound 0.00316 µM): 36.1% | viability, T/C (second compound 0.00949 µM, first compound 0.01 µM): 30.9% | viability, T/C (second compound 0.00949 µM, first compound 0.0316 µM): 28.2% | viability, T/C (second compound 0.00949 µM, first compound 0.1 µM): 15.8% | viability, T/C (second compound 0.03 µM, first compound 0.000316 µM): 28.5% | viability, T/C (second compound 0.03 µM, first compound 0.001 µM): 29.8% | viability, T/C (second compound 0.03 µM, first compound 0.00316 µM): 26.3% | viability, T/C (second compound 0.03 µM, first compound 0.01 µM): 19.1% | viability, T/C (second compound 0.03 µM, first compound 0.0316 µM): 11.9% | viability, T/C (second compound 0.03 µM, first compound 0.1 µM): 10.4% | viability, T/C (second compound 0.0949 µM, first compound 0.000316 µM): 21.5% | viability, T/C (second compound 0.0949 µM, first compound 0.001 µM): 18.4% | viability, T/C (second compound 0.0949 µM, first compound 0.00316 µM): 18.9% | viability, T/C (second compound 0.0949 µM, first compound 0.01 µM): 13.8% | viability, T/C (second compound 0.0949 µM, first compound 0.0316 µM): 7.41% | viability, T/C (second compound 0.0949 µM, first compound 0.1 µM): 6.96% | viability, T/C (second compound 0.3 µM, first compound 0.000316 µM): 18.5% | viability, T/C (second compound 0.3 µM, first compound 0.001 µM): 16.6% | viability, T/C (second compound 0.3 µM, first compound 0.00316 µM): 15.2% | viability, T/C (second compound 0.3 µM, first compound 0.01 µM): 11.5% | viability, T/C (second compound 0.3 µM, first compound 0.0316 µM): 7.41% | viability, T/C (second compound 0.3 µM, first compound 0.1 µM): 5.69%
